Measured values: article PMC12388617, “Development and Biochemical Characterization of Quorum Quenching Enzyme from Deep-Sea Bacillus velezensis DH82” (Microorganisms, 2025)

Key:
AiiADH82 = test system: T1, AiiADH82; assay: UPLC-QTOF MS of residual AHL (m/z […]), Lineweaver-Burk; type: biochemical, Bacillus velezensis; conditions: pH 6.5, 28 °C, 45 min; substrate 200-350 µM (far below the printed Km)
T1 construct: gene aiiA; full length, pET28a NdeI/XhoI, His6 at N- and C-terminus, E. coli BL21, Ni-NTA; primer-encoded start MTVKKLYF

YtnPDH82 = target: T2, YtnPDH82 (Bacillus velezensis, UniProt A7Z7T2); assay: as above; type: biochemical; conditions: pH 6.5, 28 °C, 45 min; substrate 200-350 µM (far below the printed Km)
T2 construct: gene RBAM_027000; full length, pET28a EcoRI/XhoI, His6 at N- and C-terminus, E. coli BL21, Ni-NTA; primer-encoded start METLNIGNF
T2 sequence (A7Z7T2 entry or part of it): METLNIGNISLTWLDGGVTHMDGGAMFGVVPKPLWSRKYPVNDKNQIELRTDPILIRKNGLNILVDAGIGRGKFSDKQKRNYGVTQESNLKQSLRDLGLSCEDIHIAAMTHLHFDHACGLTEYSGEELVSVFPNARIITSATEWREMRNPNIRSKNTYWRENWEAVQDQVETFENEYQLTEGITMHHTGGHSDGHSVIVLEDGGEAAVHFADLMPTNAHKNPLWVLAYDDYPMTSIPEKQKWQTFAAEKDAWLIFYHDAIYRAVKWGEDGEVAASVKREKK

CCCC(=O)CC(=O)N[C@H]1CCOC1=O [3-oxo-C6-HSL]
Km (AiiADH82): 7.8 mM | Km (YtnPDH82): 15.3 mM
